Reference: patent US5043332A, “Novel 11β-substituted -19-nor-steriods” (priority 1981, dated 1991)

Legend:
[1] = system: granuloma; assay: Anti-inflammatory activity, classical granuloma test (cotton pellets); type: in vivo, Wistar rats; details: subcutaneous dose of 50 mg/kg
Protocol: II. Anti-inflammatory Activity
(§1) The anti-inflammatory activity of the compound of Example 4 was determined by the classical granuloma test by a modification of the Meier et al test [Experientia, Vol. 6 (1950), p. 469] in which normal female Wistar rats weighing 100 to 110 g received an implantation of 2 pellets of cotton weighing 10 mg each under the thorax skin. The subcutaneous treatment which began immediately after the implantation for 2 days was 2 injections per day. 16 hours after the last injection, the animals were killed and the pellets together with the granuloma tissue formed were weighed in the fresh state and after 16 hours at 60° C. The weight of the granuloma was obtained by subtracting the initial weight of the cotton. The thymus was also removed and weighed to determine the thymolytic activity of the test product.

[2] = system: uterine endometrium; assay: Progestomimetic activity, intrauterine, change in uterine endometrium (McPhail); type: in vivo, immature female rabbits; details: method of McPhail
Protocol: (§2) Groups of three immature female rabbits weighing about 1 kg were topically treated on the dorsal skin with 25 μg of estradiol in 10 μl of ethanol on day 1. On day 4 the product to be tested dissolved in 0.1 ml, of sesame oil containing 5% benzyl alcohol was introduced into a part of the uterus isolated between two ligatures. On the sixth day the animals were sacrificed, their uteruses retained and fixed in Bouin's solution for histological examination. Changes in the uterine endometrium were noted after the method of McPhail.

[3] = system: uterine endometrium; assay: Anti-progestomimetic activity versus progesterone, oral, change in uterine endometrium (McPhail); type: in vivo, immature female rabbits
Protocol: (§3) IV. Progestomimetic and Anti-progestomimetic Activity
(§4) a) Groups of immature female rabbits weighing about 1 kg had administered to them subcutaneously from day 1 to day 5, 5 μg of estradiol. The product tested was afterward administered orally from day 8 to day 11 in a volume of 0.5 cm^3 of water containing 0.5% of carboxymethyl cellulose and 0.2% of Tween. On day 12, the rabbits were sacrificed, their uteruses were retained and fixed in Bouin's solution and histologically studied.
(§5) The changes in the uterine endometrium were noted according to the method of McPhail.

[4] = system: uterine endometrium; assay: Anti-progestomimetic activity versus progesterone, intrauterine, change in uterine endometrium (McPhail); type: in vivo, immature female rabbits
Protocol: as §2

[5] = system: uterine endometrium; assay: Progestomimetic activity, oral, change in uterine endometrium (McPhail); type: in vivo, immature female rabbits
Protocol: as §3, §4, §5

[6] = system: female rats; assay: Anti-implantation and abortive activities in female rats; type: in vivo, rat; details: by mouth
Protocol: V. ANTI-IMPLANTATION AND ABORTIVE ACTIVITIES IN FEMALE RATS
The first day of gestation is determined by the presence of sperm in the vagina.
The animals were sacrificed between the 5th and 8th day after the last treatment and the uterus was examined.

[7] = system: thymus; assay: Thymolytic activity in the granuloma test; type: in vivo, Wistar rats; details: subcutaneous dose of 50 mg/kg
Protocol: as §1

## CC#C[C@]1(O)CC[C@H]2[C@@H]3CCC4=CC(=O)CCC4=C3[C@@H](c3ccc(N(C)C)cc3)C[C@@]21C [Example 19, 11β-[4-(N,N-dimethylamino)-phenyl]-17α-(prop-1-ynyl)-Δ^4,9-estradiene-17β-ol-3-one]
[1]
  glucocorticoidal anti-inflammatory activity: did not show any glucocorticoidal anti-inflammatory activity
[2]; 30 μg/rabbit
  CHANGE IN THE ENDOMETRIUM: 0
[2]; 500 μg/rabbit
  CHANGE IN THE ENDOMETRIUM: 0
[3]; progesterone 0.2 mg subcutaneously + 0.3 mg/kg by mouth
  CHANGE IN THE ENDOMETRIUM: 2.8 McPHAIL UNTS
[3]; progesterone 0.2 mg subcutaneously + 1 mg/kg by mouth
  CHANGE IN THE ENDOMETRIUM: 2.1 McPHAIL UNTS
[3]; progesterone 0.2 mg subcutaneously + 3 mg/kg by mouth
  CHANGE IN THE ENDOMETRIUM: 1.4 McPHAIL UNTS
[3]; progesterone 0.2 mg subcutaneously + 10 mg/kg by mouth
  CHANGE IN THE ENDOMETRIUM: 0.6 McPHAIL UNTS
[3]; progesterone 0.2 mg subcutaneously + 20 mg/kg by mouth
  CHANGE IN THE ENDOMETRIUM: 0 McPHAIL UNTS
[4]; progesterone 10 μg + 1 μg/rabbit
  CHANGE IN THE ENDOMETRIUM: 1.6
[4]; progesterone 10 μg + 3 μg/rabbit
  CHANGE IN THE ENDOMETRIUM: 1.3
[4]; progesterone 10 μg + 10 μg/rabbit
  CHANGE IN THE ENDOMETRIUM: 1.0
[4]; progesterone 10 μg + 30 μg/rabbit
  CHANGE IN THE ENDOMETRIUM: 0.6
[4]; progesterone 10 μg + 90 μg/rabbit
  CHANGE IN THE ENDOMETRIUM: 0.6
[5]; 0.3 mg/kg by mouth
  CHANGE IN THE ENDOMETRIUM: 0 McPHAIL UNTS
[5]; 1.0 mg/kg by mouth
  CHANGE IN THE ENDOMETRIUM: 0 McPHAIL UNTS
[5]; 3.0 mg/kg by mouth
  CHANGE IN THE ENDOMETRIUM: 0 McPHAIL UNTS
[5]; 10.0 mg/kg by mouth
  CHANGE IN THE ENDOMETRIUM: 0 McPHAIL UNTS
[5]; 50 mg/kg by mouth
  CHANGE IN THE ENDOMETRIUM: 0 McPHAIL UNTS
[6]; days 1, 2, 3, 2 mg/kg/day
  RESULTS (anti-implantation / abortion): No action
[6]; days 1, 2, 3, 10 mg/kg/day
  RESULTS (anti-implantation / abortion): Non-implantation
[6]; days 4, 5, 6, 2 mg/kg/day
  RESULTS (anti-implantation / abortion): Non-implantation
[6]; days 4, 5, 6, 10 mg/kg/day
  RESULTS (anti-implantation / abortion): Non-implantation
[6]; days 7, 8, 9, 2 mg/kg/day
  RESULTS (anti-implantation / abortion): Abortion
[6]; days 7, 8, 9, 10 mg/kg/day
  RESULTS (anti-implantation / abortion): Abortion
[6]; days 10, 11, 12, 2 mg/kg/day
  RESULTS (anti-implantation / abortion): Abortion
[6]; days 10, 11, 12, 10 mg/kg/day
  RESULTS (anti-implantation / abortion): Abortion
[6]; days 13, 14, 15, 2 mg/kg/day
  Abortion, % of the animals: 50%
[6]; days 13, 14, 15, 10 mg/kg/day
  RESULTS (anti-implantation / abortion): Abortion
[7]
  thymolytic activity: did not show any glucocorticoidal anti-inflammatory activity or thymolytic activity
